Measurements: PubChem BioAssay (NCI)
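Values below derive from 48-hour exposures of cells grown in 96-well plates, with endpoints linearly interpolated between the two concentrations bracketing the appropriate inhibition level. GI50: concentration for 50% inhibition of growth. The concentration for full growth arrest is given as TGI.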

Columns and labels:
Assay in all cases: NCI tumour cell line growth inhibition, 48 h
[1] = tested on: 786-0 renal
[2] = tested on: A498 renal
[3] = tested on: A549 NSCLC
[4] = tested on: BT-549 breast
[5] = tested on: CAKI-1 renal
[6] = tested on: CCRF-CEM leukemia
[7] = tested on: COLO 205 colon
[8] = tested on: DU-145 prostate
[9] = tested on: EKVX NSCLC
[10] = tested on: HCC-2998 colon
[11] = tested on: HCT-116 colon
[12] = tested on: HCT-15 colon
[13] = tested on: HL-60(TB) leukemia
[14] = tested on: HOP-62 NSCLC
[15] = tested on: HOP-92 NSCLC
[16] = tested on: HS 578T breast
[17] = tested on: HT29 colon
[18] = tested on: IGROV1 ovarian
[19] = tested on: K-562 leukemia
[20] = tested on: KM12 colon
[21] = tested on: LOX IMVI melanoma
[22] = tested on: M14 melanoma
[23] = tested on: MALME-3M melanoma
[24] = tested on: MCF7 breast
[25] = tested on: MDA-MB-231 breast
[26] = tested on: MDA-MB-435
[27] = tested on: MOLT-4 leukemia
[28] = tested on: NCI-H460 lung
[29] = tested on: NCI-H522 lung
[30] = tested on: NCI/ADR-RES ovarian
[31] = tested on: OVCAR-3 ovarian
[32] = tested on: OVCAR-4 ovarian
[33] = tested on: OVCAR-5 ovarian
[34] = tested on: OVCAR-8 ovarian
[35] = tested on: PC-3 prostate
[36] = tested on: RPMI-8226 leukemia
[37] = tested on: RXF 393 renal
[38] = tested on: SF-268 CNS
[39] = tested on: SF-295 CNS
[40] = tested on: SF-539 CNS
[41] = tested on: SK-MEL-2 melanoma
[42] = tested on: SK-MEL-28 melanoma
[43] = tested on: SK-MEL-5 melanoma
[44] = tested on: SN12C renal
[45] = tested on: SNB-19 CNS
[46] = tested on: SNB-75 CNS
[47] = tested on: SR leukemia
[48] = tested on: SW-620 colon
[49] = tested on: T-47D breast
[50] = tested on: TK-10 renal
[51] = tested on: U251 CNS
[52] = tested on: UACC-257 melanoma
[53] = tested on: UACC-62 melanoma
[54] = tested on: UO-31 renal

`CC1=C2C(=C[C@@](C)(COC(=O)c3ccc(S(=O)(=O)F)cc3)[C@@H]2OC(=O)c2ccc(S(=O)(=O)F)cc2)C(=O)[C@](C)(O)C12CC2` was tested, and the GI50 [1] was 1.4 µM, the TGI [1] was 4.68 µM and the GI50 [2] was 1.82 µM. For the same molecule, the TGI [2] was 4.29 µM, the GI50 [3] was 3.04 µM and the TGI [3] was 9.27 µM. For the same molecule, the GI50 [4] was 1.26 µM, the TGI [4] was 3.01 µM and the GI50 [5] was 0.466 µM. It also gave a TGI [5] of 10.8 µM, a GI50 [6] of 2.28 µM and a TGI [6] of 15.3 µM. The GI50 [7] was 0.638 µM, the TGI [7] was 2.25 µM and the GI50 [8] was 0.373 µM. For the same molecule, the TGI [8] was 5.48 µM, the GI50 [9] was 3.04 µM and the TGI [9] was 9.33 µM. For the same molecule, the GI50 [10] was 1.31 µM, the TGI [10] was 3.06 µM and the GI50 [11] was 0.319 µM. It also gave a TGI [11] of 1.92 µM, a GI50 [12] of 0.439 µM and a TGI [12] of 4.42 µM. For the same molecule, the GI50 [13] was 0.433 µM, the TGI [13] was 3.14 µM and the GI50 [14] was 1.46 µM. The TGI [14] was 5.88 µM, the GI50 [15] was 2.11 µM and the TGI [15] was 5.62 µM. The GI50 [16] was 2.37 µM, the TGI [16] was 6.63 µM and the GI50 [17] was 0.406 µM. It also gave a TGI [17] of 6.4 µM, a GI50 [18] of 0.478 µM and a TGI [18] of 6.42 µM. The GI50 [19] was 0.733 µM, the TGI [19] was 13 µM and the GI50 [20] was 2.95 µM. For the same molecule, the TGI [20] was 12.7 µM, the GI50 [21] was 1.15 µM and the TGI [21] was 6.38 µM. For the same molecule, the GI50 [22] was 1.36 µM, the TGI [22] was 3.32 µM and the GI50 [23] was 1.16 µM. The TGI [23] was 2.94 µM, the GI50 [24] was 0.342 µM and the TGI [24] was 3.96 µM. The GI50 [25] was 1.54 µM, the TGI [25] was 7.41 µM and the GI50 [26] was 1.48 µM. The TGI [26] was 3.71 µM, the GI50 [27] was 1.01 µM and the TGI [27] was 8.73 µM. For the same molecule, the GI50 [28] was 0.206 µM, the TGI [28] was 0.48 µM and the GI50 [29] was 0.474 µM. For the same molecule, the TGI [29] was 2.1 µM, the GI50 [30] was 0.698 µM and the TGI [30] was 9.63 µM. The GI50 [31] was 0.549 µM, the TGI [31] was 3.9 µM and the GI50 [32] was 1.78 µM. It also gave a TGI [32] of 7.51 µM, a GI50 [33] of 0.558 µM and a TGI [33] of 4.33 µM. It also gave a GI50 [34] of 0.631 µM, a TGI [34] of 4.01 µM and a GI50 [35] of 1.07 µM. It also gave a TGI [35] of 11.3 µM, a GI50 [36] of 3.34 µM and a TGI [36] of 17.5 µM. It also gave a GI50 [37] of 0.337 µM, a TGI [37] of 0.965 µM and a GI50 [38] of 0.705 µM. It also gave a TGI [38] of 9.1 µM, a GI50 [39] of 2.4 µM and a TGI [39] of 7.63 µM. It also gave a GI50 [40] of 1.56 µM, a TGI [40] of 3.96 µM and a GI50 [41] of 1.76 µM. It also gave a TGI [41] of 3.41 µM, a GI50 [42] of 1.71 µM and a TGI [42] of 3.88 µM. For the same molecule, the GI50 [43] was 1.48 µM, the TGI [43] was 2.92 µM and the GI50 [44] was 1.73 µM. It also gave a TGI [44] of 11.5 µM, a GI50 [45] of 2.54 µM and a TGI [45] of 14.2 µM. It also gave a GI50 [46] of 1.35 µM, a TGI [46] of 2.66 µM and a GI50 [47] of 0.48 µM. For the same molecule, the TGI [47] was 10.2 µM, the GI50 [48] was 0.607 µM and the TGI [48] was 10.2 µM. For the same molecule, the GI50 [49] was 1.23 µM, the TGI [49] was 4.5 µM and the GI50 [50] was 2.75 µM. For the same molecule, the TGI [50] was 6.87 µM, the GI50 [51] was 1.62 µM and the TGI [51] was 5.42 µM. It also gave a GI50 [52] of 1.88 µM, a TGI [52] of 3.69 µM and a GI50 [53] of 1.64 µM. The TGI [53] was 4 µM, the GI50 [54] was 0.815 µM and the TGI [54] was 3.22 µM.
